Assay results published in ChEMBL document CHEMBL5120836, “Discovery of novel 7,8-dihydropteridine-6(5H)-one-based DNA-PK inhibitors as potential anticancer agents via scaffold hopping strategy” (Eur J Med Chem, 2022).
Activity calls are given as the source filed them. The calls are words filed in the database; no cut-off is given here.

What was measured:
HL-60 [1] = experiment: Synergistic antiproliferative activity against human HL-60 cells assessed as combination index at 1 uM in presence of 0.1 uM doxorubicin by MTT assay; assay type: functional
HL-60 [2] = experiment: Synergistic antiproliferative activity against human HL-60 cells assessed as combination index at 3.1 uM in presence of 0.1 uM doxorubicin by MTT assay; assay type: functional
HepG2 [3] = experiment: Synergistic antiproliferative activity against Doxorubicin-resistant human HepG2 cells assessed as combination index at 25 uM in presence of 0.1 uM doxorubicin by MTT assay; assay type: functional
[4] = Toxicity in BALB/c nude mouse xenografted with human HL-60 cells assessed as PDW level at 100 mg/kg, po qd for 16 days (reference value: 8.16 fL); assay type: organism-based; settings: in vivo, 384 h, time 16 day
[5] = Half life in human liver microsomes; assay type: ADME, Microsome
HL-60 [6] = experiment: Synergistic antiproliferative activity against human HL-60 cells assessed as combination index at 200 uM in presence of 0.1 uM doxorubicin by MTT assay; assay type: functional
MDA-MB-231 [7] = experiment: Synergistic antiproliferative activity against human MDA-MB-231 cells assessed as combination index at 0.1 uM in presence of 0.1 uM doxorubicin by MTT assay; assay type: functional
HCT-116 [8] = experiment: Inhibition of cell migration in human HCT-116 cells at 1 uM measured after 24 hrs by wound healing assay; assay type: functional, cell-based
HepG2 [9] = experiment: Synergistic antiproliferative activity against Doxorubicin-resistant human HepG2 cells assessed as combination index at 200 uM in presence of 0.1 uM doxorubicin by MTT assay; assay type: functional
[10] = AUC (0 to infinity) in Sprague-Dawley rat at 5 mg/kg, po; assay type: ADME, organism-based; design: time infinity, dose 5 mg/kg, route po; settings: in vivo
MDA-MB-231 [11] = experiment: Synergistic antiproliferative activity against human MDA-MB-231 cells assessed as combination index at 0.5 uM in presence of 0.1 uM doxorubicin by MTT assay; assay type: functional
[12] = Toxicity in BALB/c nude mouse xenografted with human HL-60 cells assessed as serum RBC content at 100 mg/kg, po qd for 16 days (reference value: 10.375X10^12/L); assay type: organism-based, Erythrocyte; settings: in vivo, 384 h, time 16 day
[13] = Lipophilicity, logP of the compound; assay type: physicochemical; settings: octanol/water
[14] = Toxicity in BALB/c nude mouse xenografted with human HL-60 cells assessed as MPV level at 100 mg/kg, po qd for 16 days (reference value: 7.55 fL); assay type: organism-based; settings: in vivo, 384 h, time 16 day
[15] = Intrinsic clearance in human liver microsomes; assay type: ADME, Microsome; settings: read-out: CLH
[16] = biological target: DNA-dependent protein kinase catalytic subunit (Homo sapiens, UniProt P78527); experiment: Inhibition of human native full length DNA-PK by ADP-Glo assay
Sequence of DNA-dependent protein kinase catalytic subunit (P78527 whole entry): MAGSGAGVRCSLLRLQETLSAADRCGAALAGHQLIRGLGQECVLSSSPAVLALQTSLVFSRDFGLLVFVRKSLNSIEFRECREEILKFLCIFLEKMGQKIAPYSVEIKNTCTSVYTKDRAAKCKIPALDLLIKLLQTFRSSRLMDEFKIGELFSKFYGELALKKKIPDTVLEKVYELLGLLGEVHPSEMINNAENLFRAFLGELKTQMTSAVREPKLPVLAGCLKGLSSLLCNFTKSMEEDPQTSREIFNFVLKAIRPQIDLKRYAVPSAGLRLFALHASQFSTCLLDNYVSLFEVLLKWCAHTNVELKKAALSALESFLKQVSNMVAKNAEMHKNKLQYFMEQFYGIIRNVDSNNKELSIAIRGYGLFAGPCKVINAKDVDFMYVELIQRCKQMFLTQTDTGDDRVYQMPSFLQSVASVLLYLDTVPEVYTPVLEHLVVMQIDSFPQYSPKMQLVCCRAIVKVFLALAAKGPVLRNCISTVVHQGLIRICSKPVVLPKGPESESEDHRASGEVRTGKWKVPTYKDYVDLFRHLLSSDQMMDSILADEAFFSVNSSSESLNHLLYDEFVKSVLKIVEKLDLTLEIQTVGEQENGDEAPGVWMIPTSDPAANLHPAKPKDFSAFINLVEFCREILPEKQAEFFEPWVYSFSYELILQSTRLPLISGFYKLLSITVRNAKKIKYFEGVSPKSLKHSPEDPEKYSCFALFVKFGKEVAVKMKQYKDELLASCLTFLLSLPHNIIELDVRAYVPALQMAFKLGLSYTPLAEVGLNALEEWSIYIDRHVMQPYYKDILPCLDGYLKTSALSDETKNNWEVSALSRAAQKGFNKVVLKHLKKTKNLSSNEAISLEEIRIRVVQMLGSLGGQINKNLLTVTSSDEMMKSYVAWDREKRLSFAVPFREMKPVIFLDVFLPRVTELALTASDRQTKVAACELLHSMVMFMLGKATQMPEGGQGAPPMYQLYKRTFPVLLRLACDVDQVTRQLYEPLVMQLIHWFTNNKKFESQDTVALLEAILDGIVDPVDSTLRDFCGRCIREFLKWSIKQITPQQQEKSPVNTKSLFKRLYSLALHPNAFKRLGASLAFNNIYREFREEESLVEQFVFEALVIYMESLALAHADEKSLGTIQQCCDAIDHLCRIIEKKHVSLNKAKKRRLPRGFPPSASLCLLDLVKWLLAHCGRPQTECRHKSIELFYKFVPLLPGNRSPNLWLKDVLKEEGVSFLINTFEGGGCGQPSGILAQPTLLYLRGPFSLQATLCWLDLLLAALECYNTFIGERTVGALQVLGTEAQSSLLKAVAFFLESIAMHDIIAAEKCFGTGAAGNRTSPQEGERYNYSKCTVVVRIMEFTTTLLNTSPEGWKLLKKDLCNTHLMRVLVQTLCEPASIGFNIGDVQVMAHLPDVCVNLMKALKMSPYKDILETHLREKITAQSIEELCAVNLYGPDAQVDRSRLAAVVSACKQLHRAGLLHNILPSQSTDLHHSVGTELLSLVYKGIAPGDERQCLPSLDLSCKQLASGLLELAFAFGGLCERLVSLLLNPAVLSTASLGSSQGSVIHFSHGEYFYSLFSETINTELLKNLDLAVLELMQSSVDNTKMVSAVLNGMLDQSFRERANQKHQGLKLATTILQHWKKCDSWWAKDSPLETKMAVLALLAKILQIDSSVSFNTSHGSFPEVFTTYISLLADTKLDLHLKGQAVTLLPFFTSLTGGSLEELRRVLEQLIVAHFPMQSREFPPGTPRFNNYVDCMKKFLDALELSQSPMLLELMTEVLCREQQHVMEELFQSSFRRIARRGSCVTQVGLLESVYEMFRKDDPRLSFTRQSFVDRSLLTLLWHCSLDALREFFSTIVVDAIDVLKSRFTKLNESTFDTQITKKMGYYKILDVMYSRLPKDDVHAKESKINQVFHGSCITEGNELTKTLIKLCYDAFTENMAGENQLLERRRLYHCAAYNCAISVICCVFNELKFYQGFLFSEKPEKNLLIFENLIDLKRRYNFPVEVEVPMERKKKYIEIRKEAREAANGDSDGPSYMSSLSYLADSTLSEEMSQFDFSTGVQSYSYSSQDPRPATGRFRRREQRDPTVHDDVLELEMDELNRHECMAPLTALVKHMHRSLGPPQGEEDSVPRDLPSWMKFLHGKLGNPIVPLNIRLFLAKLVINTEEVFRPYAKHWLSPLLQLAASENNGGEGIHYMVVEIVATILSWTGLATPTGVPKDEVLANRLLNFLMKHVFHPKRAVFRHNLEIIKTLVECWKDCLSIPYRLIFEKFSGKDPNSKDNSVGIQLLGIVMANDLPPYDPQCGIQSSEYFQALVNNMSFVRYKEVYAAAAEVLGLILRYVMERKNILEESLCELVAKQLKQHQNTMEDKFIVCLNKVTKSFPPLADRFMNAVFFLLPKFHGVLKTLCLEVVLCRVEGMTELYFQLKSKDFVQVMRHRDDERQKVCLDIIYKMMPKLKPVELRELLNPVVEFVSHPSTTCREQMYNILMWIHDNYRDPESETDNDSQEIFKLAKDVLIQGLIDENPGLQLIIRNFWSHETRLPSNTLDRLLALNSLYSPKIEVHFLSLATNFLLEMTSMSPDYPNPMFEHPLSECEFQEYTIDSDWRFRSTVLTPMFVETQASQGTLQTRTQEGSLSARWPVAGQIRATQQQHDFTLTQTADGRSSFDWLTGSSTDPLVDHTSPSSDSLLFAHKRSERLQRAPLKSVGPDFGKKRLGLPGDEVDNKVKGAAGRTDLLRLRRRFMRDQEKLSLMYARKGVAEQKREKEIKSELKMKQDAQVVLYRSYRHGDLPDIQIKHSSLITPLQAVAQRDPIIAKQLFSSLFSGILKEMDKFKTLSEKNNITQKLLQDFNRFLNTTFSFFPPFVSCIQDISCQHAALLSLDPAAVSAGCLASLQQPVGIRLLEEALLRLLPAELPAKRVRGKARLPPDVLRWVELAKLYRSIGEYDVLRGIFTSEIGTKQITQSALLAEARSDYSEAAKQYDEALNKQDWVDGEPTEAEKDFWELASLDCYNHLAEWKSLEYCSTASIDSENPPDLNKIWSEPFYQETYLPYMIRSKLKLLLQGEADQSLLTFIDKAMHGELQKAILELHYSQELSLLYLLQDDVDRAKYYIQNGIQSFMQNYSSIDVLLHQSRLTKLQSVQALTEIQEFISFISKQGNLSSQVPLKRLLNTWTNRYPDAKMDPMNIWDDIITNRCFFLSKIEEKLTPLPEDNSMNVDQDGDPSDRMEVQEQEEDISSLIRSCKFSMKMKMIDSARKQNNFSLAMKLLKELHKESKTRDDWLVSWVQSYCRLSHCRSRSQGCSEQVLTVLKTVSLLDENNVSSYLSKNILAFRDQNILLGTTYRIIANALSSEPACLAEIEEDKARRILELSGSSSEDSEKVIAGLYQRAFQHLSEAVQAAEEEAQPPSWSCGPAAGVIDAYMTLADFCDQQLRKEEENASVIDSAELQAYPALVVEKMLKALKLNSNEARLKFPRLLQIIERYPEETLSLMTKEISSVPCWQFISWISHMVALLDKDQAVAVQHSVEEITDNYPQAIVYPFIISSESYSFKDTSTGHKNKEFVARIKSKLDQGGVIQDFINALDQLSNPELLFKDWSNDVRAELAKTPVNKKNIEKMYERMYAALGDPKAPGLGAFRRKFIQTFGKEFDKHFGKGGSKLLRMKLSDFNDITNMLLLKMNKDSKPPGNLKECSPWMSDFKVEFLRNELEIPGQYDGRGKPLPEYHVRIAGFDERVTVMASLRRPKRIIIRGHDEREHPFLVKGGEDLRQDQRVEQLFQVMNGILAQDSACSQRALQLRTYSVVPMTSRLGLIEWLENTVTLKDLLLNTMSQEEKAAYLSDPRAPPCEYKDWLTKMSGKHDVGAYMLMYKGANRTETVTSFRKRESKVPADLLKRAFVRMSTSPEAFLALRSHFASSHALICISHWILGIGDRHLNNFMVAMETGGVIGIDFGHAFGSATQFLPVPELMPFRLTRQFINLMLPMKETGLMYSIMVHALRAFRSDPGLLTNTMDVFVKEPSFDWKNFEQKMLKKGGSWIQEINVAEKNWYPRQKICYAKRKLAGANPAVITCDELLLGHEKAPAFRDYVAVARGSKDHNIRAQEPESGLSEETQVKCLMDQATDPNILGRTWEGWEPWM

[17] = Half life in Sprague-Dawley rat at 5 mg/kg, po; assay type: ADME, organism-based; settings: in vivo
HCT-116 [18] = experiment: Disruption of mitochondrial function in human HCT-116 cells assessed as decrease in mitochondrial membrane potential by measuring proportion of cells with red fluorescence at 1 uM incubated for 24 hrs by JC-1 staining based flow cytometry (reference value: 99.4%); assay type: functional; design: scale not given: the % may be the effect or the level left
[19] = Toxicity in BALB/c nude mouse xenografted with human HL-60 cells assessed as serum granulocytes content at 100 mg/kg, po qd for 16 days (reference value: 0.51X10^9/L); assay type: organism-based; settings: in vivo, 384 h, time 16 day
HCT-116 [20] = experiment: Antiproliferative activity against human HCT-116 cells assessed as inhibition of cell growth incubated for 48 hrs by MTT assay; assay type: functional, cell-based; settings: HCT-116, 48 h
HCT-116 [21] = experiment: Induction of apoptosis in human HCT-116 cells assessed as necrotic cells at 1 uM incubated for 24 hrs in presence of 100 nM doxorubicin by AnnexinV-FITC/PI staining based flow cytometry (reference value: 0.031%); assay type: functional
[22] = Toxicity in BALB/c nude mouse xenografted with human HL-60 cells assessed as kidney morphological alterations at 100 mg/kg, po qd for 16 days by Hematoxylin and Eosin staining based analysis; assay type: organism-based; settings: in vivo, 384 h, time 16 day
[23] = Toxicity in BALB/c nude mouse xenografted with human HL-60 cells assessed as platelets level at 100 mg/kg, po qd for 16 days (reference value: 738.5X10^9/L); assay type: organism-based; settings: in vivo, 384 h, time 16 day
MCF7 = experiment: Synergistic antiproliferative activity against human MCF7 cells assessed as combination index at 6.25 uM in presence of 0.1 uM doxorubicin by MTT assay; assay type: functional
MDA-MB-231 [24] = experiment: Synergistic antiproliferative activity against human MDA-MB-231 cells assessed as combination index at 25 uM in presence of 0.1 uM doxorubicin by MTT assay; assay type: functional
in vitro = settings: human, Caco-2
Description: Efflux ratio of apparent permeability across basolateral to apical side over apical to basolateral side in human Caco-2 cells

[25] = Toxicity in BALB/c nude mouse xenografted with human HL-60 cells assessed as heart morphological alterations at 100 mg/kg, po qd for 16 days by Hematoxylin and Eosin staining based analysis; assay type: organism-based; settings: in vivo, 384 h, time 16 day
HepG2 [26] = experiment: Synergistic antiproliferative activity against Doxorubicin-resistant human HepG2 cells assessed as combination index at 50 uM in presence of 0.1 uM doxorubicin by MTT assay; assay type: functional
HL-60 [27] = experiment: Synergistic antiproliferative activity against human HL-60 cells assessed as combination index at 12.5 uM in presence of 0.1 uM doxorubicin by MTT assay; assay type: functional
HCT-116 [28] = experiment: Synergistic antiproliferative activity against human HCT-116 cells assessed as combination index at 1 uM in presence of 100 nM doxorubicin by MTT assay; assay type: functional
HepG2 [29] = experiment: Synergistic antiproliferative activity against Doxorubicin-resistant human HepG2 cells assessed as combination index at 1 uM in presence of 0.1 uM doxorubicin by MTT assay; assay type: functional
HL-60 [30] = experiment: Synergistic antiproliferative activity against human HL-60 cells assessed as combination index at 25 uM in presence of 0.1 uM doxorubicin by MTT assay; assay type: functional
[31] = Toxicity in BALB/c nude mouse xenografted with human HL-60 cells assessed as serum WBC content at 100 mg/kg, po qd for 16 days (reference value: 3.8X10^9/L); assay type: organism-based; settings: in vivo, 384 h, time 16 day

Compound: Cc1cc2ncnn2cc1Nc1ncc2c(n1)N(C1CCOCC1)CC(=O)N2C
- CI (HL-60 [1]): 0.00616
- CI (HL-60 [2]): 0.01772
- CI (HepG2 [3]): 0.07268
- Activity [4]: 7.4 fL
- half-life [5]: > 2.42 h
- CI (HL-60 [6]): 0.9812
- CI (MDA-MB-231 [7]): 0.4431
- inhibition (HCT-116 [8]): Active
- CI (HepG2 [9]): 0.2062
- AUC(0-inf) [10]: 3600 ng·h/mL
- CI (MDA-MB-231 [11]): 0.3617
- Activity [12]: 10.315 10^12/L
- logP [13]: 1.28
- Activity [14]: 6.85 fL
- microsomal CLint [15]: < 9.6 µL/min/mg
- IC50 [16]: 0.0008 µM
- half-life [17]: 1.59 h
- Activity (HCT-116 [18]): 96.4%
- Activity [19]: 0.49 10^9/L
- IC50 (HCT-116 [20]): 24.1 µM
- Activity (HCT-116 [21]): 0.002%
- Activity [22]: Non-Toxic
- Activity [23]: 750 10^9/L
- CI (MCF7): 0.06841
- CI (MDA-MB-231 [24]): 0.5933
- efflux ratio (in vitro): 4.84
- Activity [25]: Non-Toxic
- CI (HepG2 [26]): 0.09496
- CI (HL-60 [27]): 0.06945
- CI (HCT-116 [28]): 0.74
- CI (HepG2 [29]): 0.011
- CI (HL-60 [30]): 0.1382
- Activity [31]: 4.35 10^9/L
